From ChEMBL document CHEMBL3817828, “Design, synthesis and evaluation of novel tetrahydrothieno[3,2-c]pyridine derivatives as potent smoothened antagonists” (Medchemcomm, 2016)

Experiments:
[1] = Inhibition of Hh receptor (unknown origin) expressed in SAG-stimulated mouse NIH3T3 cells incubated for 24 hrs by Gli-luciferase reporter gene assay; assay type: cell-based; conditions: NIH3T3, 24 h
Protein smoothened = Protein smoothened (Homo sapiens, UniProt Q99835); test: Displacement of BODIPY-cyclopamine from human Smo expressed in HEK293 cells incubated for 3 hrs by fluorescence competitive displacement assay; assay type: cell-based
Sequence of Protein smoothened (Q99835 whole entry): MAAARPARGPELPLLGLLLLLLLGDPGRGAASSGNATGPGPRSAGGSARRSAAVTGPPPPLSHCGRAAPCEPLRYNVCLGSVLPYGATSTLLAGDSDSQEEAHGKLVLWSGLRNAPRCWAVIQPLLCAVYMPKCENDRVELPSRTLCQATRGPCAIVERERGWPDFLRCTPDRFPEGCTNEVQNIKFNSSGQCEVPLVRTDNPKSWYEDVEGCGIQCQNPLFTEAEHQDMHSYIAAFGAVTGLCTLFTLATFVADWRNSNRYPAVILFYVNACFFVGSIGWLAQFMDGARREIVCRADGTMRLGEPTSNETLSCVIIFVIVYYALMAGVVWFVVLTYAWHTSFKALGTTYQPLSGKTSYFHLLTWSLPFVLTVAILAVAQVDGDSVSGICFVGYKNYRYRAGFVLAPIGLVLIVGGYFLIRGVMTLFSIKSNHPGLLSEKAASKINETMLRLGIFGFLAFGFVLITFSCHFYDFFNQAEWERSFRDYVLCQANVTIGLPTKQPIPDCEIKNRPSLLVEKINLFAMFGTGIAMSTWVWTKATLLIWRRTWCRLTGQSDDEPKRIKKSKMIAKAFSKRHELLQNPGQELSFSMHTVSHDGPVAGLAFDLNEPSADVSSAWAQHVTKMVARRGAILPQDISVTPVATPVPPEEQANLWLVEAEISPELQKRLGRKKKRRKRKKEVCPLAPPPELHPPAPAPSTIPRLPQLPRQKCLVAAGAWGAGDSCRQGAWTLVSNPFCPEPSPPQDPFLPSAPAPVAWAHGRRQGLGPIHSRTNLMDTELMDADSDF

Compound | IC50 [1] | IC50 (Protein smoothened)
Cn1c(-c2cccc(N3CCc4sc(C(=O)Nc5ccc(Br)cc5)cc4C3)c2)nc2ccccc21 | 450 nM | 
CC(=O)N1CCN(C(=O)c2cc3c(s2)CCN(c2cccc(-c4nc5ccccc5n4C)c2)C3)CC1 | 370 nM | 
CCN(CC)C(=O)c1cc2c(s1)CCN(c1cccc(-c3nc4ccccc4n3C)c1)C2 | 1340 nM | 
Cn1c(-c2cccc(N3CCc4sc(C(=O)N5CCN(c6ccccc6F)CC5)cc4C3)c2)nc2ccccc21 | 760 nM | 
Cc1ccc(NC(=O)c2cc3c(s2)CCN(c2cccc(-c4nc5ccccc5n4C)c2)C3)cc1 | 1630 nM | 
Cn1c(-c2cccc(N3CCc4sc(C(=O)Nc5ccc(F)c(Br)c5)cc4C3)c2)nc2ccccc21 | 350 nM | 
COc1cccc(NC(=O)c2cc3c(s2)CCN(c2cccc(-c4nc5ccccc5n4C)c2)C3)c1 | 660 nM | 
Cn1c(-c2cccc(N3CCc4sc(C(=O)N5CCN(C(=O)OC(C)(C)C)CC5)cc4C3)c2)nc2ccccc21 | 2080 nM | 
CC1CCCCN1C(=O)c1cc2c(s1)CCN(c1cccc(-c3nc4ccccc4n3C)c1)C2 (centres undefined) | 330 nM | 
CC(C)CNC(=O)c1cc2c(s1)CCN(c1cccc(-c3nc4ccccc4n3C)c1)C2 | 1720 nM | 
Cn1c(-c2cccc(N3CCc4sc(C(=O)N5CCN(c6ccccn6)CC5)cc4C3)c2)nc2ccccc21 | 340 nM | 
Cn1c(-c2cccc(N3CCc4sc(C(=O)N5CCN(c6cccc(Cl)c6)CC5)cc4C3)c2)nc2ccccc21 | 380 nM | 
COc1ccc(N2CCN(C(=O)c3cc4c(s3)CCN(c3cccc(-c5nc6ccccc6n5C)c3)C4)CC2)cc1 | 1260 nM | 
CCN1CCN(C(=O)c2cc3c(s2)CCN(c2cccc(-c4nc5ccccc5n4C)c2)C3)CC1 | 350 nM | 
CNC(=O)c1cc2c(s1)CCN(c1cccc(-c3nc4ccccc4n3C)c1)C2 | 1410 nM | 
Cn1c(-c2cccc(N3CCc4sc(C(=O)Nc5ccccc5)cc4C3)c2)nc2ccccc21 | 850 nM | 
Cn1c(-c2cccc(N3CCc4sc(C(=O)Nc5ccccc5F)cc4C3)c2)nc2ccccc21 | 360 nM | 
Cn1c(-c2cccc(N3CCc4sc(C(=O)N5CCN(c6ccccc6)CC5)cc4C3)c2)nc2ccccc21 | 1320 nM | 
Cc1ccc(NC(=O)c2cc3c(s2)CCN(c2cccc(-c4nc5ccccc5n4C)c2)C3)cc1Cl | 310 nM | 
Cn1c(-c2cccc(N3CCc4sc(C(=O)N5CCN(c6cccc(C(F)(F)F)c6)CC5)cc4C3)c2)nc2ccccc21 | 1760 nM | 
Cn1c(-c2cccc(N3CCc4sc(C(=O)N5CCN(C(=O)c6ccco6)CC5)cc4C3)c2)nc2ccccc21 | 490 nM | 
CN(C)C(=O)c1cc2c(s1)CCN(c1cccc(-c3nc4ccccc4n3C)c1)C2 | 1560 nM | 
Cn1c(-c2cccc(N3CCc4sc(C(=O)N5CCN(C(c6ccccc6)c6ccccc6)CC5)cc4C3)c2)nc2ccccc21 | > 15000 nM | 
COc1ccccc1N1CCN(C(=O)c2cc3c(s2)CCN(c2cccc(-c4nc5ccccc5n4C)c2)C3)CC1 | 2350 nM | 
Cn1c(-c2cccc(N3CCc4sc(C(=O)N5CCN(c6ccc(F)cc6)CC5)cc4C3)c2)nc2ccccc21 | 320 nM | 
Cn1c(-c2cccc(N3CCc4sc(C(=O)N5CCC(O)CC5)cc4C3)c2)nc2ccccc21 | 280 nM | 431 nM

These reach a lower IC50 [1]. Values come first.

IC50 [1] | IC50 (Protein smoothened) | Compound
270 nM | 456 nM | Cn1c(-c2cccc(N3CCc4sc(C(=O)N5CCN(c6ccc(Cl)c(Cl)c6)CC5)cc4C3)c2)nc2ccccc21
130 nM | 135 nM | CN1CCN(C(=O)c2cc3c(s2)CCN(c2ccc(Cl)c(-c4nc5ccccc5n4C)c2)C3)CC1
270 nM |  | Cn1c(-c2cccc(N3CCc4sc(C(=O)Nc5ccc(F)c(F)c5)cc4C3)c2)nc2ccccc21
160 nM | 213 nM | Cn1c(-c2cc(N3CCc4sc(C(=O)N5CCN(c6ccc(Cl)c(Cl)c6)CC5)cc4C3)ccc2Cl)nc2ccccc21
220 nM | 373 nM | Cn1c(-c2cccc(N3CCc4sc(C(=O)N5CCN(S(C)(=O)=O)CC5)cc4C3)c2)nc2ccccc21
220 nM | 315 nM | Cn1c(-c2cc(N3CCc4sc(C(=O)N5CCCC5)cc4C3)ccc2Cl)nc2ccccc21
90 nM | 92 nM | Cn1c(-c2cc(N3CCc4sc(C(=O)N5CCN(c6ncccn6)CC5)cc4C3)ccc2Cl)nc2ccccc21
140 nM | 56 nM | Cn1c(-c2cc(N3CCc4sc(C(=O)Nc5cccnc5)cc4C3)ccc2Cl)nc2ccccc21
170 nM | 326 nM | CN1CCN(C(=O)c2cc3c(s2)CCN(c2cccc(-c4nc5ccccc5n4C)c2)C3)CC1
25 nM |  | CS(=O)(=O)c1ccc(C(=O)Nc2ccc(Cl)c(-c3ccccn3)c2)c(Cl)c1 [VISMODEGIB]
190 nM | 192 nM | Cn1c(-c2cc(N3CCc4sc(C(=O)N5CCC(O)CC5)cc4C3)ccc2Cl)nc2ccccc21
260 nM | 352 nM | Cn1c(-c2cccc(N3CCc4sc(C(=O)N5CCCC5)cc4C3)c2)nc2ccccc21
60 nM | 18 nM | Cn1c(-c2cc(N3CCc4sc(C(=O)N5CCOCC5)cc4C3)ccc2Cl)nc2ccccc21
210 nM | 294 nM | Cn1c(-c2cccc(N3CCc4sc(C(=O)N5CCOCC5)cc4C3)c2)nc2ccccc21
200 nM | 261 nM | Cn1c(-c2cccc(N3CCc4sc(C(=O)Nc5cccnc5)cc4C3)c2)nc2ccccc21
240 nM | 217 nM | Cn1c(-c2cc(N3CCc4sc(C(=O)N5CCN(S(C)(=O)=O)CC5)cc4C3)ccc2Cl)nc2ccccc21
150 nM | 237 nM | Cn1c(-c2cccc(N3CCc4sc(C(=O)N5CCN(c6ncccn6)CC5)cc4C3)c2)nc2ccccc21
